According to ChEMBL document CHEMBL1128530, “Alpha- and beta-adrenoceptors: from the gene to the clinic. 1. Molecular biology and adrenoceptor subclassification” (J Med Chem, 1995):

Legend:
[1] = biological target: T1, Alpha-2A adrenergic receptor (Rattus norvegicus, UniProt P22909); assay: The compound was tested for binding affinity against alpha-2D adrenergic receptor, from rat clones.
T1 sequence (P22909 whole entry): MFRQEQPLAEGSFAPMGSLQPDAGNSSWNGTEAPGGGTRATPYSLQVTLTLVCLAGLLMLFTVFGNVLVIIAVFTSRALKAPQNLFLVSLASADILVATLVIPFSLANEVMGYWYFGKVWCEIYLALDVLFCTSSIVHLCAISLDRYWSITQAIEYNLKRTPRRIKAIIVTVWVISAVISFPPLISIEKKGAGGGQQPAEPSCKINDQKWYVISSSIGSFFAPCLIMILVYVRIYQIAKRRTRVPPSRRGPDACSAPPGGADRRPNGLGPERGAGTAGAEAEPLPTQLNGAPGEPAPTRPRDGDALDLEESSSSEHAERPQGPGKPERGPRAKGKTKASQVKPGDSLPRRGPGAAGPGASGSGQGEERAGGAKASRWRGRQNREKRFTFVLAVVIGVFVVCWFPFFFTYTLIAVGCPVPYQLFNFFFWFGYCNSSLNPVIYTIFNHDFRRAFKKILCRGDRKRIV

[2] = biological target: T2, Alpha-2B adrenergic receptor (Homo sapiens, UniProt P18089); assay: Binding affinity against Alpha-2B adrenergic receptor from human clones.
T2 sequence (P18089 whole entry): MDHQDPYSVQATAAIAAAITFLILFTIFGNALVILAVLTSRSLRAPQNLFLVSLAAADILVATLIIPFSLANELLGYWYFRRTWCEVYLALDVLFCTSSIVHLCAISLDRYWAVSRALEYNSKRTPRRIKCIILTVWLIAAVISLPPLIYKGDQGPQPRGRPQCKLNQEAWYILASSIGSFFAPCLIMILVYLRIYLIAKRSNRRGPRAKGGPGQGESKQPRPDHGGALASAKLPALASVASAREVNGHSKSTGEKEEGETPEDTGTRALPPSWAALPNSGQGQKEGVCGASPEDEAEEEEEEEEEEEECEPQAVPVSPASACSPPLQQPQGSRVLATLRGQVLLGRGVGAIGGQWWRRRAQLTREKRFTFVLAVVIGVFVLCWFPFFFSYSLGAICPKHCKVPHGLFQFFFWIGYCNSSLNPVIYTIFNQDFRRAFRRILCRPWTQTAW

[3] = biological target: T3, Alpha-2A adrenergic receptor (Homo sapiens, UniProt P08913); assay: Binding affinity against Alpha-2A adrenergic receptor, from human clones.
T3 sequence (P08913 whole entry): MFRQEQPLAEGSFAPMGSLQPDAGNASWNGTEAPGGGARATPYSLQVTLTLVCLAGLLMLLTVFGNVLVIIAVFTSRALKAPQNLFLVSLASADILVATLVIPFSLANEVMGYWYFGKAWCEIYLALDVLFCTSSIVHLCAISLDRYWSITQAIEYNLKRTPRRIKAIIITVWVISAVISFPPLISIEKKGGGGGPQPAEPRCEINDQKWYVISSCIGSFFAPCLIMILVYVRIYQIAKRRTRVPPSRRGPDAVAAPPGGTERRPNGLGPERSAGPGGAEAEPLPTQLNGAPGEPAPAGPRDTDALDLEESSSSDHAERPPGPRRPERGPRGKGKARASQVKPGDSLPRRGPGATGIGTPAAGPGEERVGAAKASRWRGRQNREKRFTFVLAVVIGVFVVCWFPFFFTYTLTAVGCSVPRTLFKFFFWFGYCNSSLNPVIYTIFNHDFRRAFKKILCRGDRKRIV

[4] = biological target: T4, Alpha-2C adrenergic receptor (Homo sapiens, UniProt P18825); assay: Binding affinity against Alpha-2C adrenergic receptor from human clones.
T4 sequence (P18825 whole entry): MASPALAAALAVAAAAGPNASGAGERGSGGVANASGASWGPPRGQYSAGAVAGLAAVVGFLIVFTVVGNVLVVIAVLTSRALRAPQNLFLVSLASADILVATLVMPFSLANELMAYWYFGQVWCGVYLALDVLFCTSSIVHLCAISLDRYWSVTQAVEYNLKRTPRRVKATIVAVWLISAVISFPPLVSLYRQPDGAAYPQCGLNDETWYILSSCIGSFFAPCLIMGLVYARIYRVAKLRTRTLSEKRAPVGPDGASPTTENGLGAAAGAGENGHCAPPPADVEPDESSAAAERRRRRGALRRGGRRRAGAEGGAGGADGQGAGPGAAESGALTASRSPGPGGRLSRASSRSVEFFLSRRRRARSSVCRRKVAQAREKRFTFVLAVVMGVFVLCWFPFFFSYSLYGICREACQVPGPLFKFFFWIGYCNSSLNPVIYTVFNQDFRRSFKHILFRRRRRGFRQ

[5] = biological target: T5, Alpha-1A adrenergic receptor (Bos taurus, UniProt P18130); assay: Binding affinity against Alpha-1A adrenergic receptor from bovine clone
T5 sequence (P18130 whole entry): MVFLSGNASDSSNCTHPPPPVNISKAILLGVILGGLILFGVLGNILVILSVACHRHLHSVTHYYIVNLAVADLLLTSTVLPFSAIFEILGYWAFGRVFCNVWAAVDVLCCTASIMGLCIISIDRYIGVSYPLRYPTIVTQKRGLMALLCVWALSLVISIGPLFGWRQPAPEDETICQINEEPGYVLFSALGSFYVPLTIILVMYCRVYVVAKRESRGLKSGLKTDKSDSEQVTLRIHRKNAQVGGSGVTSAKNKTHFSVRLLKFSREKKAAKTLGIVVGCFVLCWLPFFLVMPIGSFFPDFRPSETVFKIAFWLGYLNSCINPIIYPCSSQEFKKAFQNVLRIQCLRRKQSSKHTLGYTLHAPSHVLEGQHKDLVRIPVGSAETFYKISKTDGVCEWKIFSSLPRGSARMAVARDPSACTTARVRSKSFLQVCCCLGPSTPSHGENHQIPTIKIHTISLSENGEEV

[6] = biological target: T6, Alpha-1D adrenergic receptor (Rattus norvegicus, UniProt P23944); assay: Binding affinity against Alpha-1D adrenergic receptor, from rat clones.
T6 sequence (P23944 whole entry): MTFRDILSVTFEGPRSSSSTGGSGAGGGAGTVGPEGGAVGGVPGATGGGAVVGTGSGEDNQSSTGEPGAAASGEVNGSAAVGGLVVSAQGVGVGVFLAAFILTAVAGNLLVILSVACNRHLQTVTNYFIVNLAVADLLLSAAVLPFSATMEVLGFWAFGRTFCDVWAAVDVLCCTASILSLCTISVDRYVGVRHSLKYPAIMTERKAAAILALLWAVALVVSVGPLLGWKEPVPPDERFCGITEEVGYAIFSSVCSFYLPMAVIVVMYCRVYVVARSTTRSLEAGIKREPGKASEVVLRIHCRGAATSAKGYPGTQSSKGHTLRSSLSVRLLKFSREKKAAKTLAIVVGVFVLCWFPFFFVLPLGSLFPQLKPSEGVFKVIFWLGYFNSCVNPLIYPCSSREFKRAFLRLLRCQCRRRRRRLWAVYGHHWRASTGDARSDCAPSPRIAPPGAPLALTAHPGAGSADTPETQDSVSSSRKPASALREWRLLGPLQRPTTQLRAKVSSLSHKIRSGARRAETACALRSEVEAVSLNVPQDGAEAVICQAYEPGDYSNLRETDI

[7] = biological target: T7, Alpha-1B adrenergic receptor (Homo sapiens, UniProt P35368); assay: Binding affinity against Alpha-1B adrenergic receptor from human clone
T7 sequence (P35368 whole entry): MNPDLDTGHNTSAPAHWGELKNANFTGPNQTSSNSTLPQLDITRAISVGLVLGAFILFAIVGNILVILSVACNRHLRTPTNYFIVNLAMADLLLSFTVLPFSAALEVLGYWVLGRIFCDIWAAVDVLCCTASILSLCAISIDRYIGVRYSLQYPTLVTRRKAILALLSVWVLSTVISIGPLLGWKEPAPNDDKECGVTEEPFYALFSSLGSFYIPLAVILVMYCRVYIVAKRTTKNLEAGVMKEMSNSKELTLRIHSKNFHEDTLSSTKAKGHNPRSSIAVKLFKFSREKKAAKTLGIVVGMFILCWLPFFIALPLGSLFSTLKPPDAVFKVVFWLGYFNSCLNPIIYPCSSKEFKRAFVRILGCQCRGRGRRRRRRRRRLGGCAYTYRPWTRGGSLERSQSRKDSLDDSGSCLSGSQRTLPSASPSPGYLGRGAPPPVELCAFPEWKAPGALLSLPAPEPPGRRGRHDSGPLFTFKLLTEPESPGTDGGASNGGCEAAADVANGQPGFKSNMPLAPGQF

[8] = biological target: T8, Alpha-1D adrenergic receptor (Homo sapiens, UniProt P25100); assay: Binding affinity against Alpha-1D adrenergic receptor, from human clones.
T8 sequence (P25100 whole entry): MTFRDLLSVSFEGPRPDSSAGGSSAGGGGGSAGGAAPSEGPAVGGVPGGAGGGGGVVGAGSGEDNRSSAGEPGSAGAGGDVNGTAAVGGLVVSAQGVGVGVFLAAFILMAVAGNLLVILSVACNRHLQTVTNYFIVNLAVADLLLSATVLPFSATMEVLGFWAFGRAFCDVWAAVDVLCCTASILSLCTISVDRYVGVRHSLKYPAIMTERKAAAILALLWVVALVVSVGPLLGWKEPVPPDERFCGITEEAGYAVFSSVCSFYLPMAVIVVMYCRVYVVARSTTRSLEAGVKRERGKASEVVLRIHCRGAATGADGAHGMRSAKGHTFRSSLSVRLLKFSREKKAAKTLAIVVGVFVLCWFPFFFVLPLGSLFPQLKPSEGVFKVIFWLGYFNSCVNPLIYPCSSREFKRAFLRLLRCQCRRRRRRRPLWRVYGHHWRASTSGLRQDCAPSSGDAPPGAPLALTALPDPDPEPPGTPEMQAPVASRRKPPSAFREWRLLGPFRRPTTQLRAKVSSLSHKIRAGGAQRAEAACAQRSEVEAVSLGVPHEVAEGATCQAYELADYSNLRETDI

[9] = biological target: T9, Alpha-2A adrenergic receptor (Sus scrofa, UniProt P18871)
T9 sequence (P18871 whole entry): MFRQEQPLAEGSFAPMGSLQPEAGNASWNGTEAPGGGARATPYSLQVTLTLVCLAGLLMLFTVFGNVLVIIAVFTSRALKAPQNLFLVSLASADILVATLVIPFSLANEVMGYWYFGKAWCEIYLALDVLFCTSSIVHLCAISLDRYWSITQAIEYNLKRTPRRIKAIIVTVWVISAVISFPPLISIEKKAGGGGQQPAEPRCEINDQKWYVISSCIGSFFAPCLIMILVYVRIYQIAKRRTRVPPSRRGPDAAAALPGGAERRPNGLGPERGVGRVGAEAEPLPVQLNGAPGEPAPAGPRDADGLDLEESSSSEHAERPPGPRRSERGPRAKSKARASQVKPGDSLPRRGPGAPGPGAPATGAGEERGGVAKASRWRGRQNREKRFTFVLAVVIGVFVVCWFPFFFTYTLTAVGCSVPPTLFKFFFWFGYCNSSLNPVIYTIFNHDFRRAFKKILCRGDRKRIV

[10] = biological target: T10, Alpha-2A adrenergic receptor (Bos taurus, UniProt Q28838); assay: Compound was evaluated for inhibition of binding of [3H]MK-91 to Alpha-2 adrenergic receptor in bovine pineal
T10 sequence (Q28838 whole entry): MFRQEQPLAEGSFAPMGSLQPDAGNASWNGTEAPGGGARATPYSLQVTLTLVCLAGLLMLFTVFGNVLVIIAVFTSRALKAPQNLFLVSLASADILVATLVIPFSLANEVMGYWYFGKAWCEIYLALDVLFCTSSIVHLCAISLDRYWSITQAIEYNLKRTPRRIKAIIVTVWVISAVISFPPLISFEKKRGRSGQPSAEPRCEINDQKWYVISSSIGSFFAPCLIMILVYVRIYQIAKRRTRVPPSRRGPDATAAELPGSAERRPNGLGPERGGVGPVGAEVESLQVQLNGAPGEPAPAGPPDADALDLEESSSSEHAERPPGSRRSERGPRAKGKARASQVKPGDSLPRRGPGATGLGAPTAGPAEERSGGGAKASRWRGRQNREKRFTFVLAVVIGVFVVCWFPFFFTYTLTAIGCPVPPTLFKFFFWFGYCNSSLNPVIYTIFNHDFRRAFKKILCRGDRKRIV

## CC(C)=CCOc1ccc(Cl)c2c1CCN(C)CC2
[1]
  Ki: 313 nM
[2]
  Ki: 142 nM
[3]
  Ki: 114 nM
[4]
  Ki: 64 nM

## COc1cc2c(cc1OC)CN(c1cc(N)c3cc(OC)c(OC)cc3n1)CC2 [ABANOQUIL]
[5]
  Ki: 0.03 nM
[6]
  Ki: 0.03 nM

## COc1cc2nc(N(C)CCCNC(=O)C3CCCO3)nc(N)c2cc1OC (stereo unspecified) [ALFUZOSIN]
[6]
  Ki: 3.5 nM
[7]
  Ki: 2.8 nM
[8]
  Ki: 3.6 nM

## COc1cc2nc(N3CCN(C(=O)c4ccco4)CC3)nc(N)c2cc1OC [PRAZOSIN]
[9]
  Ki: 4100 nM
[10]
  Ki: 106 nM

## COC(=O)[C@H]1[C@H]2C[C@H]3c4[nH]c5ccccc5c4CCN3C[C@H]2CC[C@@H]1O [RAUWOLSCINE]
[6]
  Ki: 35 nM

## COc1cc2nc(N3CCN(C(=O)C4CCCO4)CC3)nc(N)c2cc1OC (stereo unspecified) [TERAZOSIN]
[5]
  Ki: 26 nM
[6]
  Ki: 35 nM
[3]
  Ki: 3700 nM
[8]
  Ki: 3.5 nM
